Results: article PMC4750701, “Role of Mitochondrial RNA Polymerase in the Toxicity of Nucleotide Inhibitors of Hepatitis C Virus” (Antimicrobial Agents and Chemotherapy, 2016)

Key:
[1] = Cytotoxicity in HepG2 (galactose) cells, 5-day treatment; details: human, HepG2 cells (galactose)
Description: (§1) All cells were cultured at 37°C in a 5% CO2 incubator with 90% humidity unless noted otherwise. […] All cells were treated with the various compounds for 5 days, except for human erythroid and myeloid progenitors, which were treated for 14 days. After the incubation period, cell viability was measured by the addition of CellTiter Glo viability reagents (Promega, Madison, WI). The luminescence signal was quantified on an Envision luminescence plate reader (PerkinElmer, Waltham, MA) after incubation of the reagents and cells for 10 min at room temperature. […] CC50 values were calculated as the average of the results of three or four independent experiments.
Cell Culture and Cytotoxicity Studies
The Huh-7 cells were maintained in growth medium containing Dulbecco's Modified Eagle
Medium (DMEM, Cellgro) supplemented with 1% Nonessential Amino Acids (NEAA, Cellgro,
Manassas, VA), 10% fetal bovine serum (FBS, HyClone, Logan, UT) and 1% Penicillin-
streptomycin-glutamate (PSG, Invitrogen, Carlsbad, CA). The cells were passaged twice weekly
and maintained at 90% confluence densities.
The HepG2 cells were maintained in Eagle’s Minimum Essential Medium (EMEM) from ATCC
(Manassas, VA) supplemented with 10% FBS, 100 units/mL penicillin and 100 µg/mL
streptomycin (P/S) (Gibco). The cells were passaged twice weekly and maintained at 90%
The PC-3 cells were maintained in Kaighn’s F12 medium (Gibco, Carlsbad, CA) supplemented
with 10% FBS (HyClone, Logan, UT), 100 units/mL penicillin and 100 µg/mL streptomycin
(P/S) (Gibco). The cells were passaged twice weekly and maintained at 90% confluence. Cells
between passages 4 and 15 were used in the assays.
The fibroblast cell line MRC-5 cell line derived from normal lung tissue, was purchased from
ATCC (Manassas, VA) and cultured in Minimum Essential Medium (MEM) (Cellgro, Manassas,
VA) supplemented with 10% FBS (HyClone, Logan, UT) and 1% PSG (Invitrogen). The cells
were passaged twice weekly and maintained at 90% confluence densities.

[2] = target: T1, Recombinant human DNA polymerase gamma (Homo sapiens, UniProt P54098); assay: Inhibition of human DNA polymerase gamma; type: biochemical; details: triphosphate form of the compound tested; read-out: Mean IC50 ± SD for DNA Pol γ
T1 construct: made in house; host or cells: insect cells
T1 sequence (P54098 1-1239): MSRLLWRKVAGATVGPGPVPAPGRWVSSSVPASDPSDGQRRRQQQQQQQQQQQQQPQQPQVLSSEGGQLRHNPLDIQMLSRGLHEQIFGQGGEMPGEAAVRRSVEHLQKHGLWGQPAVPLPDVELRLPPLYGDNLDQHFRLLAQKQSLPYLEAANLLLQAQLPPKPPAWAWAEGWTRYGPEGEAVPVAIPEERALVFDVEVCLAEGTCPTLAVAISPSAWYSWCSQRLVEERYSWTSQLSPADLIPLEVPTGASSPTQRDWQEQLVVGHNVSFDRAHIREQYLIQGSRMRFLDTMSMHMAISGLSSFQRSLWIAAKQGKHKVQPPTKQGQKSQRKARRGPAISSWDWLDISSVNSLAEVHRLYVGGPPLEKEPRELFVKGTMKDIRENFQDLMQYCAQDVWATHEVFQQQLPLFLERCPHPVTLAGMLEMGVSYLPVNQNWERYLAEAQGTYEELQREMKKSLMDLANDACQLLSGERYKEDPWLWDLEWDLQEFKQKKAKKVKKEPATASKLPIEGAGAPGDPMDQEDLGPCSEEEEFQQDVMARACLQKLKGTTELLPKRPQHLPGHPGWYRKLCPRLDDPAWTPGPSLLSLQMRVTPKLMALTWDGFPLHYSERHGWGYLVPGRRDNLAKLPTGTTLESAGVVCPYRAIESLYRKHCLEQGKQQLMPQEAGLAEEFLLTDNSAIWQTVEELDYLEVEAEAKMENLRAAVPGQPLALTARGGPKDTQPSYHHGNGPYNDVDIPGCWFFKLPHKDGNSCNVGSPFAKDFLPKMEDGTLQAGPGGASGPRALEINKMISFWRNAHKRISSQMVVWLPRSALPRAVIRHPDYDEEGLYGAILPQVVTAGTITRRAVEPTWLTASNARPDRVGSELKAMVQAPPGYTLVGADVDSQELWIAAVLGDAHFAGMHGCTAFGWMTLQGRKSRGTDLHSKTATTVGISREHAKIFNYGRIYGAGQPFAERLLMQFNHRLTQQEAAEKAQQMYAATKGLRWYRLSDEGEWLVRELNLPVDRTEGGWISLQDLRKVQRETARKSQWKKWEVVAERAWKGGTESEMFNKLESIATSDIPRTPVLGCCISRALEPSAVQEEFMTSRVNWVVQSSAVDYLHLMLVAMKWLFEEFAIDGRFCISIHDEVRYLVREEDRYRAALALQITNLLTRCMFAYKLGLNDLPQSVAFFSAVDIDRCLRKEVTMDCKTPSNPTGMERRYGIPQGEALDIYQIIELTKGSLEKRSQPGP
T1 sequence (Q9UHN1 26-485 partner limits assumed): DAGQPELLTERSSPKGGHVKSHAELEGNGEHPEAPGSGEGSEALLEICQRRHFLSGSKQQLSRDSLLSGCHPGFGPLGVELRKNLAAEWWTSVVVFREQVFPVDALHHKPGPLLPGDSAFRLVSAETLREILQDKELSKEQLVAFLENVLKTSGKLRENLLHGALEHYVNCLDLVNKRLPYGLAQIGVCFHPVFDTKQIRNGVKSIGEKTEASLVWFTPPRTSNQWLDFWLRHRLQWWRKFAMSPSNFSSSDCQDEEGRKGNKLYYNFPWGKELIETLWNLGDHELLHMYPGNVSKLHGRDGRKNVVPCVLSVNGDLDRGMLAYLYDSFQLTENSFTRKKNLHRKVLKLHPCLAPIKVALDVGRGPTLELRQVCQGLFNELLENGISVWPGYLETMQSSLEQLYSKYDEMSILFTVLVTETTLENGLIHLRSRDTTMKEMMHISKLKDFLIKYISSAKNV
Description: Activated fish sperm DNA was purchased from USB/Affymetrix (Santa Clara, CA) and used as a template for the DNA polymerases alpha, beta, and gamma. The DNA template used in the RNA Pol II assay was a 1,188-bp restriction fragment containing the cytomegalovirus (CMV) immediate early promoter (Promega, Madison, WI). The RNA and DNA oligonucleotides used in the mitochondrial RNA polymerase assay (see Table S1 in the supplemental material) were synthesized and PAGE purified by Thermo Scientific/Dharmacon (Lafayette, CO). RNA primer R12 was 5′-^32P-phosphorylated with [γ-^32P]ATP (3,000 Ci/mmol) and T4 kinase (New England BioLabs, Ipswich, MA).
Human DNA polymerase alpha, isolated from HeLa cell extracts, was from CHIMERx (Madison, WI). Recombinant human DNA polymerase beta, expressed in E. coli, was a gift from Zucai Suo at The Ohio State University. Recombinant human DNA polymerase gamma (including both the large subunit and the small subunit) was cloned, expressed, and purified from insect cells by Gilead Sciences (Foster City, CA) ([13]). RNA PolII was purchased as part of the HeLaScribe nuclear extract in vitro transcription system kit from Promega (Madison, WI). The recombinant human PolRMT and the transcription factors mitochondrial transcription factor A (mtTFA) and B2 (mtTFB2) were purchased from Enzymax (Lexington, KY). FLAG epitope-tagged RNA PolI and PolIII complexes were isolated from rat NSN1 cells and HeLa cells, respectively ([17], [18]). The inhibition of DNA polymerases alpha, beta, and gamma, PolRMT, and PolII and the rate of single-nucleotide incorporation by PolRMT have been described previously in detail ([12], [13], [19]). Inhibition of RNA PolI and PolIII was studied using published methods ([20], [21]). All concentrations were final unless noted otherwise. For the RNA PolI inhibition assay, a reaction mixture containing 50 mM HEPES (pH 7.9), 20% glycerol, 100 mM KCl, 1 mM dithiothreitol (DTT), 50 μg/ml calf thymus DNA, 4 mM MgCl2, 5 or 80 μM UTP (0.25 μl of [5,6-^3H]UTP, >25 Ci/mmol; PerkinElmer), 1 mM noncompeting NTP, competing NTP (5 μM for GTP, CTP, and UTP and 25 μM for ATP), and various concentrations (0 to 500 μM) of NTP analogs was preincubated at 30°C for 5 min. […] After incubation at 30°C for 20 min to 1 h, the reactions were terminated by pipetting the mixtures onto DEAE-cellulose discs (DE81; Whatman), and the products analyzed as described previously ([20], [21]).

[3] = Cytotoxicity in quiescent PBMCs, 5 days; details: human, quiescent PBMCs
Description: Human peripheral blood mononuclear cells (PBMCs) were isolated from human buffy coats obtained from healthy volunteers (Stanford Blood Bank, Palo Alto, CA) using standard Ficoll separation and stimulated as described elsewhere ([13]) and were tested at both quiescent and stimulated stages. Quiescent PBMCs were stimulated with 10 units per ml of recombinant human interleukin 2 (hIL-2) and 1 μg per ml phytohemagglutinin P (PHA-P) for 48 h prior to drug treatment.
as §1
Human peripheral blood mononuclear cells (PBMCs) were isolated from human buffy coats
obtained from normal healthy volunteers (Stanford Medical School Blood Center, Palo Alto,
CA). Total PBMCs were isolated from buffy coats using standard Ficoll separation and sterile
cellular isolation techniques performed in a bio-safety cabinet (1). Except where noted, the
procedure was carried out at room temperature. The final PBMCs pellet was resuspended in
Logan, UT), penicillin 100 units/mL and streptomycin 100 µg/mL (Gibco). For quiescent
PBMCs cultures, total cells were seeded in 96-well plates at a density of 1 x 10^6 cells per well, followed by immediate drug treatment. Stimulated PBMCs cultures were set up by seeding the freshly isolated PBMCs in T-175cm2 tissue culture flasks in 100 mL of RPMI containing the same components as the ones used for the quiescent PBMCs but with the addition of 10 units per mL of recombinant human interleukin-2 (hIL-2, Roche, Indianapolis, IN), and 1 µg per mL phytohemagglutinin-P (PHA-P, Sigma-Aldrich, St. Louis, MO) at density of 2  10^6 cells per mL for 48 hours at 37C in a 5% CO2 incubator with 90% humidity, prior to drug treatment.

[4] = Bone marrow erythroid progenitor colony assay, 14 days; type: cell-based, human; details: human, read-out: Mean CC50 ± SD in Bone marrow cells Erythroid; for CC50 at 14 days: human bone marrow erythroid progenitors
[5] = Cytotoxicity in MT-4 T-cells, 5-day treatment; details: human, MT-4 cells
Description: Primary human hepatocytes were from Bioreclamation IVT (Westbury, NY) or Life Technologies (Carlsbad, CA).
as §1

| IC50 [2] [µM] | Structure (SMILES) | CC50 at 5 days [1] [µM] | CC50 at 5 days [3] [µM] | CC50 at 14 days [4] [µM] | CC50 at 5 days [5] [µM] | CC50 [4] [µM] |
| --- | --- | --- | --- | --- | --- | --- |
| > 200 | CCOc1nc(N)nc2c1ncn2[C@@H]1O[C@@H]2COP(=O)(OC(C)C)O[C@H]2[C@@]1(C)F (some centres unmarked) [PSI-938] | > 89 | > 100 | > 100 | > 100 | – |
| > 200 | C[C@@]1(O)[C@H](O)[C@@H](CO)O[C@H]1n1ccc(N)nc1=O [2′CMeC, 2′-C-methyl (2′CMe) cytidine] | > 89 | > 100 | 99 ± 18 | 19 ± 6 | – |
| > 200 | C[C@@]1(F)[C@H](O)[C@@H](CO)O[C@H]1n1ccc(N)nc1=O [PSI-6130] | > 89 | > 100 | – | > 100 | – |
| > 200 | [N-]=[N+]=N[C@]1(CO)O[C@@H](n2ccc(N)nc2=O)[C@H](O)[C@@H]1O [4′-AzidoC, 4′-azido cytidine] | > 89 | > 100 | > 100 | > 100 | – |
| > 200 | C[C@@]1(O)[C@H](O)[C@@H](COP(=O)(O)OP(=O)(O)OP(=O)(O)O)O[C@H]1n1cnc2c(=O)[nH]c(N)nc21 [2′CMeGTP] | – | – | – | – | – |
| – | COc1nc(N)nc2c1ncn2[C@@H]1O[C@H](COP(=O)(N[C@@H](C)C(=O)OCC(C)(C)C)Oc2cccc3ccccc23)[C@@H](O)[C@@]1(C)O (some centres unmarked) [BMS-986094] | – | – | – | – | 4.5 ± 1.5 |

| Structure (SMILES) | IC50 [2] [µM] | CC50 at 5 days [1] [µM] | CC50 at 5 days [3] [µM] | CC50 at 14 days [4] [µM] | CC50 at 5 days [5] [µM] | CC50 [4] [µM] |
| --- | --- | --- | --- | --- | --- | --- |
| CC(C)OC(=O)[C@H](C)N[P@](=O)(OC[C@H]1O[C@@H](n2ccc(=O)[nH]c2=O)[C@](C)(F)[C@@H]1O)Oc1ccccc1 [Sofosbuvir] | > 200 | – | – | – | – | – |
| CC(C)OC(=O)[C@H](C)N[P@](=O)(OC[C@H]1O[C@@](C#N)(c2ccc3c(N)ncnn23)[C@](C)(O)[C@@H]1OC(=O)C(C)C)Oc1ccccc1 [GS-6620] | > 200 | – | – | – | – | – |
